According to patent publication US20240024273A1, “TOPICAL ADMINISTRATION OF 2-(DIETHYLAMINO)ETHYL 2-(4-ISOBUTYLPHENYL)PROPRIONATE FOR TREATMENT OF DISEASES” (TECHFIELDS PHARMA CO., LTD., priority 2020, published 2024):

Experiments:
Assay type in all cases: in vivo, human
[1] = tested on: osteoarthritis of the knee; assay: Second Phase 2 study: WOMAC overall score; details: Week 12; for WOMAC Overall Scores, % of improvement from baseline / WOMAC Overall Scores, % of improvement from placebo / WOMAC Overall Scores, Changes from Baseline (LS Mean) / WOMAC Overall Scores, Week 12 (LS Mean) / WOMAC Overall Scores, % of improvement from Oral Ibuprofen / WOMAC Overall Scores, Different from oral ibuprofen (LS Mean) / WOMAC Overall Scores, Different from placebo (LS Mean): all subjects
Source text: This is a Phase 2, multicenter, randomized, double blind (within dose), Ibuprofen-placebo controlled, parallel group, dose range finding study to evaluate the efficacy, safety, and PK of 2-(diethylamino)ethyl 2-(4-isobutylphenyl)propionate spray in adult subjects with clinically symptomatic OA of the knee. For subjects with bilateral knee pain, both knees will be treated, but the most symptomatic knee (ie, the most painful knee as measured by the Western Ontario and McMaster University Osteoarthritis Index [WOMAC® 3.1] pain subscale score at Screening) will be designated as the target knee for efficacy analyses. For subjects with unilateral knee pain, only the symptomatic (target) knee will be treated.
The VAS version of the WOMAC will be used for the Primary and Secondary Efficacy Endpoints. Efficacy endpoints will be assessed at Screening and Baseline (Day 1) and at the Week 2, Week 4, Week 8, and Week 12/EOS visits.
(§1) 4.9.2. Secondary Efficacy Endpoints: • 1. Change from Baseline in the WOMAC (VAS) pain subscale score for the target knee at 2, 8, and 12 weeks of treatment; • 2. Change from Baseline in the WOMAC (VAS) stiffness subscale scores for the target knee and WOMAC (VAS) functional ability subscale scores at 2, 4, 8, and 12 weeks of treatment; • 3. Change from Baseline in the overall WOMAC (VAS) score at 2, 4, 8, and 12 weeks of treatment; • 4. Subject's global assessment of disease status of the target knee at 2, 4, 8, and 12 weeks of treatment; • 5. Subject's global assessment of response to therapy of the target knee at 2, 4, 8, and 12 weeks of treatment; • 6. Amount of rescue medication (acetaminophen) consumed per day for target knee pain.
The Secondary Efficacy Endpoints, change from Baseline in the WOMAC subscale scores for pain, stiffness, and functional ability, and overall WOMAC score at 2, 4, 8, and 12 weeks of treatment, will be analyzed using the same methods as for the Primary Efficacy Endpoint.

[2] = tested on: osteoarthritis of the knee; assay: Second Phase 2 study: Subject's Global Assessment of Disease Status (SGADS)
Source text: as §1

[3] = tested on: osteoarthritis of the knee; assay: Second Phase 2 study: Investigator's global assessment of disease status (IGADS); details: Week 12; for IGADS: Good and Very good / IGADS: Poor and Very Poor / IGADS: fair: first 130 subjects; for IGADS, Good and Very good / IGADS, Poor and Very Poor / IGADS, fair: all subjects
[4] = 17.5 mg/knee BID, Week 12, first 130 subjects
[5] = Week 12, 4.375 mg/knee BID (n = 23), first 130 subjects
[6] = Week 12, 8.75 mg/knee BID (n = 24), first 130 subjects
[7] = Week 12, 17.5 mg/knee BID (n = 19), first 130 subjects
[8] = all subjects, 4.375 mg/knee BID, n = 49, Week 12
[9] = all subjects, 8.75 mg/knee BID, n = 54, Week 12
[10] = all subjects, 17.5 mg/knee BID, n = 52, Week 12

For `CCN(CC)CCOC(=O)C(C)c1ccc(CC(C)C)cc1` (stereo not drawn) [2-(diethylamino)ethyl 2-(4-isobutylphenyl)propionate], the “WOMAC Overall Scores, % of improvement from baseline” value ([1]; 4.375 mg/knee BID, n = 49) was −42.8%, the “WOMAC Overall Scores, % of improvement from placebo” value ([1]; 4.375 mg/knee BID, n = 49) was −6.6% and the “WOMAC Overall Scores, Changes from Baseline (LS Mean)” value (“WOMAC Overall Scores, Changes” for short) ([1]; 4.375 mg/knee BID, n = 49) was −25.4 mm. The “WOMAC Overall Scores, Week 12 (LS Mean)” value ([1]; 4.375 mg/knee BID, n = 49) was 34.0 mm, the “WOMAC Overall Scores, % of improvement from Oral Ibuprofen” value ([1]; 8.75 mg/knee BID, n = 54) was −4.6% and the “WOMAC Overall Scores, % of improvement from baseline” value ([1]; 8.75 mg/knee BID, n = 54) was −45.9%. The “WOMAC Overall Scores, % of improvement from placebo” value ([1]; 8.75 mg/knee BID, n = 54) was −9.7%, the “WOMAC Overall Scores, Changes” value ([1]; 8.75 mg/knee BID, n = 54) was −27.7 mm and the “WOMAC Overall Scores, Different from oral ibuprofen (LS Mean)” value ([1]; 8.75 mg/knee BID, n = 54) was −2.8 mm. For the same molecule, the “WOMAC Overall Scores, Different from placebo (LS Mean)” value ([1]; 8.75 mg/knee BID, n = 54) was −6.4 mm, the “WOMAC Overall Scores, Week 12 (LS Mean)” value ([1]; 8.75 mg/knee BID, n = 54) was 32.7 mm and the “WOMAC Overall Scores, % of improvement from Oral Ibuprofen” value ([1]; 17.5 mg/knee BID, n = 52) was −10.6%. For the same molecule, the “WOMAC Overall Scores, % of improvement from baseline” value ([1]; 17.5 mg/knee BID, n = 52) was −51.9%, the “WOMAC Overall Scores, % of improvement from placebo” value ([1]; 17.5 mg/knee BID, n = 52) was −15.7% and the “WOMAC Overall Scores, Changes” value ([1]; 17.5 mg/knee BID, n = 52) was −30.9 mm. For the same molecule, the “WOMAC Overall Scores, Different from oral ibuprofen (LS Mean)” value ([1]; 17.5 mg/knee BID, n = 52) was −6.0 mm, the “WOMAC Overall Scores, Different from placebo (LS Mean)” value ([1]; 17.5 mg/knee BID, n = 52) was −9.6 mm and the “WOMAC Overall Scores, Week 12 (LS Mean)” value ([1]; 17.5 mg/knee BID, n = 52) was 28.6 mm. The “average scores in all six subscales” value ([1]; high dose group) was “below 30 mm”, the “SGADS, difference from oral ibuprofen” value [2, 4] was −14.2 mm and the “SGADS, difference from placebo” value [2, 4] was −18.6 mm. The “Subject’s Global Assessment of Disease Status Scores, Baseline (LS Mean)” value ([2]; 4.375 mg/knee BID (n = 23), first 130 subjects) was 64.8 mm, the “Subject’s Global Assessment of Disease Status Scores, Baseline (LS Mean)” value ([2]; 8.75 mg/knee BID (n = 24), first 130 subjects) was 67.2 mm and the “Subject’s Global Assessment of Disease Status Scores, Baseline (LS Mean)” value ([2]; 17.5 mg/knee BID (n = 19), first 130 subjects) was 69.3 mm. The “Subject’s Global Assessment of Disease Status Scores, % of improvement from Oral Ibuprofen” value [2, 5] was −12.2%, the “Subject’s Global Assessment of Disease Status Scores, % of improvement from baseline” value [2, 5] was −50.6% and the “Subject’s Global Assessment of Disease Status Scores, % of improvement from placebo” value [2, 5] was −14.2%. The “Subject’s Global Assessment of Disease Status Scores, Changes from Baseline (LS Mean)” value [2, 5] was −32.8 mm, the “Subject’s Global Assessment of Disease Status Scores, Different from oral ibuprofen (LS Mean)” value [2, 5] was −3.9 mm and the “Subject’s Global Assessment of Disease Status Scores, Different from placebo (LS Mean)” value [2, 5] was −8.3 mm. The “Subject’s Global Assessment of Disease Status Scores, Week 12 (LS Mean)” value (from here on “Subject’s Global Assessment … Week 12 (LS Mean)”) [2, 5] was 32.0 mm, the “Subject’s Global Assessment of Disease Status Scores, % of improvement from Oral Ibuprofen” value [2, 6] was −11.8% and the “Subject’s Global Assessment of Disease Status Scores, % of improvement from baseline” value [2, 6] was −50.7%. The “Subject’s Global Assessment of Disease Status Scores, % of improvement from placebo” value [2, 6] was −14.3%, the “Subject’s Global Assessment of Disease Status Scores, Changes from Baseline (LS Mean)” value [2, 6] was −34.1 mm and the “Subject’s Global Assessment of Disease Status Scores, Different from oral ibuprofen (LS Mean)” value [2, 6] was −5.2 mm. The “Subject’s Global Assessment of Disease Status Scores, Different from placebo (LS Mean)” value [2, 6] was −9.6 mm, the “Subject’s Global Assessment … Week 12 (LS Mean)” value [2, 6] was 33.1 mm and the “Subject’s Global Assessment of Disease Status Scores, % of improvement from Oral Ibuprofen” value [2, 7] was −23.8%. The “Subject’s Global Assessment of Disease Status Scores, % of improvement from baseline” value [2, 7] was −62.2%, the “Subject’s Global Assessment of Disease Status Scores, % of improvement from placebo” value [2, 7] was −25.8% and the “Subject’s Global Assessment of Disease Status Scores, Changes from Baseline (LS Mean)” value [2, 7] was −43.1 mm. For the same molecule, the “Subject’s Global Assessment of Disease Status Scores, Different from oral ibuprofen (LS Mean)” value [2, 7] was −14.2 mm, the “Subject’s Global Assessment of Disease Status Scores, Different from placebo (LS Mean)” value [2, 7] was −18.6 mm and the “Subject’s Global Assessment … Week 12 (LS Mean)” value [2, 7] was 26.2 mm. For the same molecule, the “Subject's Global Assessment of Disease Status Scores, % of improvement from Oral Ibuprofen” value [2, 8] was −5.3%, the “Subject's Global Assessment of Disease Status Scores, % of improvement from Placebo” value [2, 8] was −6.0% and the “Subject's Global Assessment of Disease Status Scores, % of improvement from baseline” value [2, 8] was −51.9%. For the same molecule, the “Subject's Global Assessment of Disease Status Scores, Changes from Baseline (LS Mean)” value [2, 8] was −34.7 mm, the “Subject's Global Assessment of Disease Status Scores, Week 12 (LS Mean)” value (“Subject's Global Assessment … Week 12 (LS Mean)” below) [2, 8] was 32.1 mm and the “Subject's Global Assessment of Disease Status Scores, % of improvement from Oral Ibuprofen” value [2, 9] was −6.4%. For the same molecule, the “Subject's Global Assessment of Disease Status Scores, % of improvement from Placebo” value [2, 9] was −7.1%, the “Subject's Global Assessment of Disease Status Scores, % of improvement from baseline” value [2, 9] was −53.0% and the “Subject's Global Assessment of Disease Status Scores, Changes from Baseline (LS Mean)” value [2, 9] was −36.6 mm. For the same molecule, the “Subject's Global Assessment of Disease Status Scores, Different from oral ibuprofen (LS Mean)” value [2, 9] was −3.4 mm, the “Subject's Global Assessment of Disease Status Scores, Different from placebo (LS Mean)” value [2, 9] was −6.2 mm and the “Subject's Global Assessment … Week 12 (LS Mean)” value [2, 9] was 32.4 mm. The “Subject's Global Assessment of Disease Status Scores, % of improvement from Oral Ibuprofen” value [2, 10] was −10.6%, the “Subject's Global Assessment of Disease Status Scores, % of improvement from Placebo” value [2, 10] was −11.3% and the “Subject's Global Assessment of Disease Status Scores, % of improvement from baseline” value [2, 10] was −57.2%. The “Subject's Global Assessment of Disease Status Scores, Changes from Baseline (LS Mean)” value [2, 10] was −38.3 mm, the “Subject's Global Assessment of Disease Status Scores, Different from placebo (LS Mean)” value [2, 10] was −7.9 mm and the “Subject's Global Assessment … Week 12 (LS Mean)” value [2, 10] was 28.7 mm. For the same molecule, the “IGADS: Good and Very good” value ([3]; 4.375 mg/knee BID (n = 23)) was 43.5%, the “IGADS: Poor and Very Poor” value ([3]; 4.375 mg/knee BID (n = 23)) was 4.3% and the “IGADS: fair” value ([3]; 4.375 mg/knee BID (n = 23)) was 53.2%. For the same molecule, the “IGADS: Good and Very good” value ([3]; 8.75 mg/knee BID (n = 24)) was 41.7%, the “IGADS: Poor and Very Poor” value ([3]; 8.75 mg/knee BID (n = 24)) was 4.2% and the “IGADS: fair” value ([3]; 8.75 mg/knee BID (n = 24)) was 54.2%. The “IGADS: Good and Very good” value ([3]; 17.5 mg/knee BID (n = 19)) was 68.4%, the “IGADS: Poor and Very Poor” value ([3]; 17.5 mg/knee BID (n = 19)) was 0% and the “IGADS: fair” value ([3]; 17.5 mg/knee BID (n = 19)) was 31.6%. The “IGADS, Good and Very good” value ([3]; 4.375 mg/knee BID, n = 49) was 40.8%, the “IGADS, Poor and Very Poor” value ([3]; 4.375 mg/knee BID, n = 49) was 8.2% and the “IGADS, fair” value ([3]; 4.375 mg/knee BID, n = 49) was 51.0%. For the same molecule, the “IGADS, Good and Very good” value ([3]; 8.75 mg/knee BID, n = 54) was 48.1%, the “IGADS, Poor and Very Poor” value ([3]; 8.75 mg/knee BID, n = 54) was 7.4% and the “IGADS, fair” value ([3]; 8.75 mg/knee BID, n = 54) was 44.4%. The “IGADS, Good and Very good” value ([3]; 17.5 mg/knee BID, n = 52) was 63.5%, the “IGADS, Poor and Very Poor” value ([3]; 17.5 mg/knee BID, n = 52) was 1.9% and the “IGADS, fair” value ([3]; 17.5 mg/knee BID, n = 52) was 34.6%.
